The text below walks through data of patent US20060084135A1, “Compositions for manipulating the lifespan and stress response of cells and organisms” (priority 2003, published 2006).

Structures can show the parent of a compound that is named as a salt.

For the assay, the target named is T1, recombinant human SIRT1 (Homo sapiens, UniProt Q96EB6).
T1 sequence (Q96EB6 1-747): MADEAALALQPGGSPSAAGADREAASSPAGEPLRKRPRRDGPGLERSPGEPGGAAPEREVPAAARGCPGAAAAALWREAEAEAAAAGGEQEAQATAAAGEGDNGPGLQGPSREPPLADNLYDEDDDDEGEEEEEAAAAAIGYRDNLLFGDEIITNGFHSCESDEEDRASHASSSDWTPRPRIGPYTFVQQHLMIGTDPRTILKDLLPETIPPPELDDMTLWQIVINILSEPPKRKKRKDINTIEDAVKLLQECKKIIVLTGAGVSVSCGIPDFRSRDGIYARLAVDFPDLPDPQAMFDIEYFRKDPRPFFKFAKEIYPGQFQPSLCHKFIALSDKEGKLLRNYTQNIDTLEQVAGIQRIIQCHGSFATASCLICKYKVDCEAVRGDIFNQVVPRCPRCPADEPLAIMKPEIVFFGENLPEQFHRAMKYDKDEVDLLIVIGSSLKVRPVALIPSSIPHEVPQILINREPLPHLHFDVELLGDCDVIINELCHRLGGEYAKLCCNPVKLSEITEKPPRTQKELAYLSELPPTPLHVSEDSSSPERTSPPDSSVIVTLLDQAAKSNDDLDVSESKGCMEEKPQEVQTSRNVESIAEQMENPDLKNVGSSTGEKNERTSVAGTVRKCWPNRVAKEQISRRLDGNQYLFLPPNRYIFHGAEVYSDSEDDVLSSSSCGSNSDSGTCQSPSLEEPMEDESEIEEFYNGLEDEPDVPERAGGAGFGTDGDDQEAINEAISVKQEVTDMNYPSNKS
Briefly: SIRT1 fluorescent deacetylation assay (p53-382 acetylated peptide substrate). The assay is classed as biochemical. The settings on record: for Ratio to Control Rate Mean ± SE: 100 μM, 25 μM NAD+, 25 μM p53-382 acetylated peptide; for SIRT1 stimulating activity (in words): polyphenol screen.

[1] abbreviates: Supplementary Table 2, flavones part I.
The mark [2] stands for this setting: Supplementary Table 3, flavones part II.
[3] abbreviates: Supplementary Table 6, free radical protective compounds.
The mark [4] stands for this setting: Supplementary Table 4, isoflavones, flavanones, anthocyanidins.

With `O=c1cc(-c2ccc(O)cc2)oc2cc(O)c(O)c(O)c12` [6-Hydroxyapigenin, 5,6,7,4′-Tetrahydroxyflavone], the “Ratio to Control Rate Mean ± SE” value under setting [1] is recorded as 3.06 ± 0.29.
For `O=c1cc(-c2ccccc2)oc2ccccc12` [Flavone], under setting [2], the “Ratio to Control Rate Mean ± SE” value was 1.41 ± 0.23.
As for `O=c1cc(-c2ccc(O)c(O)c2)oc2cc(O)cc(O)c12` [Luteolin, 5,7,3′,4′-Tetrahydroxyflavone], the “Ratio to Control Rate Mean ± SE” value under setting [1] is on record as 5.66 ± 0.80.
`O=c1c(O)c(-c2cc(O)c(O)c(O)c2)oc2cc(O)ccc12` [3,7,3′,4′,5′-Pentahydroxyflavone]: the “Ratio to Control Rate Mean ± SE” value under setting [2] was found to be 0.826 ± 0.074.
For `CC(=O)Oc1cc(O)cc(/C=C/c2ccc(O)cc2)c1` [BML-227, 3,4′-Dihydroxy-5-acetoxy-trans-stilbene], the “Ratio to Control Rate Mean ± SE” value (Table 11, resveratrol analogs) worked out at 3.340 ± 0.093.
On the same count and under the same terms, the same measure for `Oc1cc(O)cc(/C=C/c2ccc3ccccc3c2)c1` [BML-218, (E)-1-(3,5-Dihydroxyphenyl)-2-(2-napthyl) ethene]: 3.05 ± 0.37.
For the compound `C[N+](C)(C)[C@@H](Cc1c[nH]c(=S)[nH]1)C(=O)[O-]` [L-(+)-Ergothioneine, (S)-a-Carboxy-2,3-dihydro-N,N,N-trimethyl-2-thioxo-1H-imidazole-4-ethanaminium inner salt], the “Ratio to Control Rate Mean ± SE” value under setting [3] is given as 2.06 ± 0.48.
For the compound `O=C(O[C@@H]1Cc2c(O)cc(O)cc2O[C@@H]1c1cc(O)c(O)c(O)c1)c1cc(O)c(O)c(O)c1` [(−)-Epigallocatechin Gallate], under “Supplementary Table 5, catechins”, the “Ratio to Control Rate Mean ± SE” value stood at 0.32 ± 0.12.
Regarding `O=c1cc(-c2ccc(O)cc2)oc2ccccc12` [4′-Hydroxyflavone], under setting [2], the “Ratio to Control Rate Mean ± SE” value came to 1.73 ± 0.12.
Regarding `O=c1c(O)c(-c2ccc(O)cc2O)oc2ccc(O)cc12` [3,6,2′,4′-Tetrahydroxyflavone], the “Ratio to Control Rate Mean ± SE” value under setting [1] was 2.10 ± 0.22.
Take `COc1ccc(/C=C/c2cc(O)cc(O)c2)cc1O` [Rhapontin aglycone, 3,5,3′Trihydroxy-4′-methoxy-trans-stilbene]: the “Ratio to Control Rate Mean ± SE” value (Table 11, resveratrol analogs) amounted to 4.060 ± 0.069.
Consider `O=c1c(O)c(-c2ccc(O)cc2)oc2c(O)c(O)ccc12` [7,8,3,4′-Tetrahydroxyflavone], for which, under setting [2], the “Ratio to Control Rate Mean ± SE” value is reported as 1.91.
As for `O=c1c(-c2ccc(O)cc2)coc2cc(O)cc(O)c12` [5,7,4′-Trihydroxyisoflavone], the “SIRT1 stimulating activity (in words)” value is “absence of activity”. The “Ratio to Control Rate Mean ± SE” value under setting [4] is 1.109 ± 0.026.
As to `CC1=NN(c2ccccc2)C(=O)C1` [MCI-186, 3-Methyl-1-phenyl-2-pyrazolin-5-one, reference compound], the “Ratio to Control Rate Mean ± SE” value under setting [3] is on record as 1.2513 ± 0.0080.
Turning to `Oc1ccc(/C=C/c2ccccc2)cc1` [4-Hydroxy-trans-stilbene], where the note is “Table 13, resveratrol analogs”, the “Ratio to Control Rate Mean ± SE” value is reported as 0.943 ± 0.039.
Regarding `CCc1ccc(/C=C/c2cc(O)cc(O)c2)cc1` [BML-225, 3,5-Dihydroxy-4′-ethyl-trans-stilbene], the “Ratio to Control Rate Mean ± SE” value (Table 9, resveratrol analogs) worked out at 9.373 ± 0.014.
With `CC(C)c1cccc(=O)c(O)c1` [Hinokitiol, 2-hydroxy-4-isopropyl-2,4,6-cycloheptatrien-1-one], the “Ratio to Control Rate Mean ± SE” value under setting [3] stood at 2.48 ± 0.15.
For `[N-]=[N+]=Nc1ccc(/C=C/c2cc(O)cc(O)c2)cc1` [BML-232, 3,5-Dihydroxy-4′-azido-trans-stilbene], the “SIRT1 stimulating activity (in words)” value is recorded as “very similar SIRT1 activating properties to resveratrol”. For the setting “Table 10, resveratrol analogs”, the “Ratio to Control Rate Mean ± SE” value was 7.24 ± 0.12.
Take `O=c1cc(-c2cc(O)c(O)c(O)c2)oc2cc(O)ccc12` [7,3′,4′,5′-Tetrahydroxyflavone]: under setting [1], the “Ratio to Control Rate Mean ± SE” value came out at 3.62 ± 0.56.
For the compound `Oc1cc(O)c2cc(O)c(-c3ccc(O)c(O)c3)[o+]c2c1.[Cl-]` [Cyanidin chloride, 3,5,7,3′,4′-Pentahydroxyflavylium chloride], under setting [4], the “Ratio to Control Rate Mean ± SE” value is reported as 0.451 ± 0.015.
As to `O=c1c(O)c(-c2cc(O)c(O)c(O)c2)oc2cc(O)cc(O)c12` [Myricetin, 3,5,7,3′,4′,5′-Hexahydroxyflavone], the “Ratio to Control Rate Mean ± SE” value under setting [2] was determined as 0.898 ± 0.070.
